In ChEMBL document CHEMBL1201862, “PubChem BioAssay data set” (2004):
Several values for one entry are separate records, joined by “and”; a condition that tells them apart may be missing. Equal values may be shown once.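 Each compound was tested at five concentrations against cells in 96-well plates for 48 hours. The concentration for 50% growth inhibition is given as GI50.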 Activity calls are given as the source filed them. Rule as the data show it: active = GI50 up to about 1.1 µM and inactive = higher.

Tests used:
Test in all cases: DTP human tumour cell line panel, 48 h
MOLT-4 = tested on: MOLT-4
CAKI-1 = tested on: CAKI-1
SF-295 = tested on: SF-295
HT-29 = tested on: HT-29
NCI-H522 = tested on: NCI-H522
HCT-15 = tested on: HCT-15
LOX IMVI = tested on: LOX IMVI
UACC-257 = tested on: UACC-257
SNB-75 = tested on: SNB-75
U-251 = tested on: U-251
K562 = tested on: K562
SR = tested on: SR
SF-268 = tested on: SF-268
SW-620 = tested on: SW-620
SK-MEL-2 = tested on: SK-MEL-2
KM12 = tested on: KM12
IGROV-1 = tested on: IGROV-1
SK-MEL-5 = tested on: SK-MEL-5
DU-145 = tested on: DU-145
BT-549 = tested on: BT-549

SMILES | GI50 (MOLT-4) | GI50 (CAKI-1) | GI50 (SF-295) | GI50 (HT-29) | GI50 (NCI-H522) | GI50 (HCT-15) [µM] | GI50 (LOX IMVI) | GI50 (UACC-257) | GI50 (SNB-75) | GI50 (U-251) | GI50 (K562) | GI50 (SR) | GI50 (SF-268) | GI50 (SW-620) | GI50 (SK-MEL-2) | GI50 (KM12) | GI50 (IGROV-1) | GI50 (SK-MEL-5) | GI50 (DU-145) | GI50 (BT-549)
Cc1ccc(S(=O)(=O)N(/N=C(\N)Oc2ccc(Cl)cc2)C(=N)Oc2ccc(Cl)cc2)cc1 | > 100 µM (inactive) | > 100 µM (inactive) | > 100 µM (inactive) | > 100 µM (inactive) | > 100 µM (inactive) | > 100 | > 100 µM (inactive) | > 100 µM (inactive) | > 100 µM (inactive) | > 100 µM (inactive) | > 100 µM (inactive) | > 100 µM (inactive) | > 100 µM (inactive) | > 100 µM (inactive) | > 100 µM (inactive) | > 100 µM (inactive) | > 100 µM (inactive) | > 100 µM (inactive) | – | –
O=C1NCN(c2ccccc2)C12CCN(CC1COc3ccccc3O1)CC2 (stereo unspecified) [SPIROXATRINE] | > 100 µM (inactive) | 39.8 µM (inactive) | 33.8 µM (inactive) | > 100 µM (inactive) | 91.8 µM (inactive) | > 100 | > 100 µM (inactive) | 36.6 µM (inactive) | 36.4 µM (inactive) | 31.3 µM (inactive) | > 100 µM (inactive) | > 100 µM (inactive) | 65.2 µM (inactive) | > 100 µM (inactive) | 38.4 µM (inactive) | – | 27.5 µM (inactive) | > 100 µM (inactive) | 77.4 µM (inactive) | –
N#Cc1c(-c2ccccc2)[nH]c(=O)n(C2OC(CO)C(O)C(O)C2O)c1=O (stereo unspecified) | > 100 µM (inactive) | > 100 µM (inactive) | > 100 µM (inactive) | > 100 µM (inactive) | – | > 100 | – | > 100 µM (inactive) | > 100 µM (inactive) and 75.7 µM (inactive) | > 100 µM (inactive) | > 100 µM (inactive) | – | > 100 µM (inactive) | > 100 µM (inactive) | > 100 µM (inactive) | > 100 µM (inactive) | – | > 100 µM (inactive) | > 100 µM (inactive) | > 100 µM (inactive)
C=CCOC(=O)N1c2ccc(O)cc2[C@@]23O[C@@]24[C@@H]1C#C/C=C\C#C[C@]3(O)C(OC)(OC)C[C@@H]4C | 16.3 µM (inactive) | 53.6 µM (inactive) | 36.9 µM (inactive) | 21.7 µM (inactive) | 31.3 µM (inactive) | 44.2 | – | 19.1 µM (inactive) | 12.1 µM (inactive) | 33.5 µM (inactive) | 34.8 µM (inactive) | 24.2 µM (inactive) | 36.5 µM (inactive) | 52.2 µM (inactive) | 24.2 µM (inactive) | 24.9 µM (inactive) | 25.8 µM (inactive) | 13.8 µM (inactive) | 46.6 µM (inactive) | –
Cc1ccsc1/C=N/Nc1nc2ccccc2s1 | 16.2 µM (inactive) | 15.5 µM (inactive) | 10.6 µM (inactive) | 34.6 µM (inactive) | – | 50.5 | 23.9 µM (inactive) | 20.4 µM (inactive) | 20.5 µM (inactive) | 13.5 µM (inactive) | 14.7 µM (inactive) | – | 21.4 µM (inactive) | 25 µM (inactive) | 26.2 µM (inactive) | 24.2 µM (inactive) | 11 µM (inactive) | 20.9 µM (inactive) | 26.8 µM (inactive) | 71.3 µM (inactive)
Nc1ncnc2c1ncn2C1C=CC(CP(=O)(O)O)C1 (stereo unspecified) | > 100 µM (inactive) | > 100 µM (inactive) | > 100 µM (inactive) | > 100 µM (inactive) | – | > 100 | > 100 µM (inactive) | > 100 µM (inactive) | > 100 µM (inactive) | > 100 µM (inactive) | – | > 100 µM (inactive) | > 100 µM (inactive) | > 100 µM (inactive) | > 100 µM (inactive) | > 100 µM (inactive) | > 100 µM (inactive) | > 100 µM (inactive) | > 100 µM (inactive) | –
COc1ccc(/C=C/C(=O)CCN2CCN(CCC(=O)/C=C/c3ccc(OC)cc3)CC2)cc1 | 6.87 µM (inactive) | 13.5 µM (inactive) | 8.26 µM (inactive) | 10.4 µM (inactive) | – | 8.53 | 3.49 µM (inactive) | 14.8 µM (inactive) | 19.1 µM (inactive) | 12.1 µM (inactive) | 5.22 µM (inactive) | – | 17.4 µM (inactive) | 4.1 µM (inactive) | 19.4 µM (inactive) | 10.7 µM (inactive) | 11.5 µM (inactive) | 18.1 µM (inactive) | 26.2 µM (inactive) | 18.6 µM (inactive)
COc1cc2c3cc1Oc1c(OC)c(OC)cc4c1[C@@H](Cc1ccc(O)c(c1)Oc1ccc(cc1)C[C@@H]3N(C)CC2)N(C)CC4.c1ccccc1 | 10.9 µM (inactive) | 1.79 µM (inactive) | 16.4 µM (inactive) | 10.7 µM (inactive) | 7.55 µM (inactive) | 12.3 | 17.1 µM (inactive) | 3.36 µM (inactive) | 6.27 µM (inactive) | 10.1 µM (inactive) | 8.69 µM (inactive) | 2.33 µM (inactive) | 23.2 µM (inactive) | 16.2 µM (inactive) | 16.9 µM (inactive) | 10.9 µM (inactive) | 20 µM (inactive) | 3.89 µM (inactive) | – | –
